# Test results: patent publication US20090048301A1 (IMCLONE SYSTEMS INCORPORATED, priority 2003, published 2009)
# Test system: bovine tubulin
# Test: In vitro tubulin polymerization assay (turbidity at 340 nm)
# Assay type: biochemical
# Details: 10 μM compound, 30 minute data point, vs 1% DMSO control
# Summary of the method: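 Bovine tubulin (97%, <3% MAPs) at 3 mg/ml final in G-PEM pH 7 with 1 mM GTP and 5% glycerol, added cold to compound wells at 37° C (1% DMSO final). A340 read each minute for 30 min; percent inhibition from 30-min point versus DMSO control.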
row,Compound,Tubulin Assay: percent inhibition at 10 μM based on 30 minute data [%]
1,"COc1cc(CNc2ncccc2-c2nnc(Nc3cccc(F)c3)o2)cc(OC)c1 [Compound 184, (3,5-Dimethoxy-benzyl)-{3-[5-(3-fluoro-phenylamino)-[1,3,4]oxadiazol-2-yl]-pyridin-2-yl}-amine]",23
2,"COc1ccc(CNc2ncccc2-c2nnc(Nc3cc(OC)c(OC)c(OC)c3)o2)cc1 [Compound 188, (4-Methoxy-benzyl)-{3-[5-(3,4,5-trimethoxy-phenylamino)-[1,3,4]oxadiazol-2-yl]-pyridin-2-yl}-amine]",56
3,"NS(=O)(=O)c1cccc(Nc2ncccc2-c2nnc(Nc3ccc4c(c3)OCCO4)o2)c1 [Compound 191, 3-{3-[5-(2,3-Dihydro-benzo[1,4]dioxin-6-ylamino)-[1,3,4]oxadiazol-2-yl]-pyridin-2-ylamino}-benzenesulfonamide]",28
4,"c1cncc(CCNc2ncccc2-c2nnc(Nc3ccc4c(c3)OCO4)o2)c1 [Compound 200, {3-[5-(Benzo[1,3]dioxol-5-ylamino)-[1,3,4]oxadiazol-2-yl]-pyridin-2-yl}-(2-pyridin-3-yl-ethyl)-amine]",68
5,"c1cncc(CCNc2ncccc2-c2nnc(Nc3ccc4c(c3)OCCO4)o2)c1 [Compound 201, {3-[5-(2,3-Dihydro-benzo[1,4]dioxin-6-ylamino)-[1,3,4]oxadiazol-2-yl]-pyridin-2-yl}-(2-pyridin-3-yl-ethyl)-amine]",23
6,"COc1cc(Nc2nnc(-c3cccnc3NCCc3cccnc3)o2)cc(OC)c1OC [Compound 204, (2-Pyridin-3-yl-ethyl)-{3-[5-(3,4,5-trimethoxy-phenylamino)-[1,3,4]oxadiazol-2-yl]-pyridin-2-yl}-amine]",28
7,"c1cnc(OCc2ccc3c(c2)OCO3)c(-c2nnc(Nc3ccc4c(c3)OCO4)o2)c1 [Compound 208, Benzo[1,3]dioxol-5-yl-{5-[2-(benzo[1,3]dioxol-5-ylmethoxy)-pyridin-3-yl]-[1,3,4]oxadiazol-2-yl}-amine]",44
8,"Brc1cnn(-c2ncccc2-c2nnc(Nc3ccc4c(c3)OCCO4)o2)c1 [Compound 211, {5-[2-(4-Bromo-pyrazol-1-yl)-pyridin-3-yl]-[1,3,4]oxadiazol-2-yl}-(2,3-dihydro-benzo[1,4]dioxin-6-yl)-amine]",73
9,"CS(=O)(=O)c1ccc(-c2nnc(-c3cccnc3NCc3ccc(F)cc3)o2)cc1 [Compound 212, (4-Fluoro-benzyl)-{3-[5-(4-methanesulfonyl-phenyl)-[1,3,4]oxadiazol-2-yl]-pyridin-2-yl}-amine]",38
10,"COc1cc(Nc2ncccc2-c2nnc(-c3ccc(S(C)(=O)=O)cc3)o2)cc(OC)c1 [Compound 213, (3,5-Dimethoxy-phenyl)-{3-[5-(4-methanesulfonyl-phenyl)-[1,3,4]oxadiazol-2-yl]-pyridin-2-yl}-amine]",30
11,"CS(=O)(=O)c1ccc(-c2nnc(-c3cccnc3NCc3cccc(F)c3)o2)cc1 [Compound 214, (3-Fluoro-benzyl)-{3-[5-(4-methanesulfonyl-phenyl)-[1,3,4]oxadiazol-2-yl]-pyridin-2-yl}-amine]",52
12,"c1ccc(-c2nnc(Nc3ccc4c(c3)OCCO4)o2)c(NCc2ncc[nH]2)c1 [Compound 220, (2,3-Dihydro-benzo[1,4]dioxin-6-yl)-(5-{2-[(1H-imidazol-2-ylmethyl)-amino]-phenyl}-[1,3,4]oxadiazol-2-yl)-amine]",79
13,c1ccc(-c2nnc(Nc3ccc4c(c3)OCCO4)o2)c(NCc2cnccn2)c1 [Compound 221],80
14,"c1ccc(-c2nnc(Nc3ccc4c(c3)OCCO4)o2)c(NCc2ccc3[nH]ncc3c2)c1 [Compound 222, (2,3-Dihydro-benzo[1,4]dioxin-6-yl)-(5-{2-[(1H-indazol-5-ylmethyl)-amino]-phenyl}-[1,3,4]oxadiazol-2-yl)-amine]",95
15,"c1ccc(-c2nnc(Nc3ccc4c(c3)OCCO4)o2)c(NCc2cncnc2)c1 [Compound 226, (2,3-Dihydro-benzo[1,4]dioxin-6-yl)-(5-{2-[(pyrimidin-5-ylmethyl)-amino]-phenyl}-[1,3,4]oxadiazol-2-yl)-amine]",94
16,"c1ccc(-c2nnc(Nc3ccc4c(c3)OCCO4)o2)c(NCc2ccc3ncccc3c2)c1 [Compound 227, (2,3-Dihydro-benzo[1,4]dioxin-6-yl)-(5-{2-[(quinolin-6-ylmethyl)-amino]-phenyl}-[1,3,4]oxadiazol-2-yl)-amine]",99
17,"CN(C)c1ccc(-c2nnc(Nc3ccc4c(c3)OCCO4)o2)c(NCc2cccnc2)c1 [Compound 229, (2,3-Dihydro-benzo[1,4]dioxin-6-yl)-(5-{4-dimethylamino-2-[(pyridin-3-ylmethyl)-amino]-phenyl}-[1,3,4]oxadiazol-2-yl)-amine]",32
18,"CN(C)c1ccc(-c2nnc(Nc3ccc4c(c3)OCCO4)o2)c(NCc2ccccn2)c1 [Compound 230, (2,3-Dihydro-benzo[1,4]dioxin-6-yl)-(5-{4-dimethylamino-2-[(pyridin-2-ylmethyl)-amino]-phenyl}-[1,3,4]oxadiazol-2-yl)-amine]",45
19,CN(C)c1ccc(-c2nnc(Nc3ccc4c(c3)OCCO4)o2)c(NCc2ccncc2)c1 [Compound 231],28
20,"CN(C)c1ccc(-c2nnc(Nc3ccc4c(c3)OCCO4)o2)c(NCc2ccc3c(c2)OCO3)c1 [Compound 232, (5-{2-[(Benzo[1,3]dioxol-5-ylmethyl)-amino]-4-dimethylamino-phenyl}-[1,3,4]oxadiazol-2-yl)-(2,3-dihydro-benzo[1,4]dioxin-6-yl)-amine]",26
21,"CN(C)c1ccc(-c2nnc(Nc3ccc4c(c3)OCCO4)o2)c(NCc2ccc(F)c(F)c2)c1 [Compound 233, {5-[2-(3,4-Difluoro-benzylamino)-4-dimethylamino-phenyl]-[1,3,4]oxadiazol-2-yl}-(2,3-dihydro-benzo[1,4]dioxin-6-yl)-amine]",40
22,"CN(C)c1ccc(-c2nnc(Nc3ccc4c(c3)OCCO4)o2)c(NCc2cncnc2)c1 [Compound 234, (2,3-Dihydro-benzo[1,4]dioxin-6-yl)-(5-{4-dimethylamino-2-[(pyrimidin-5-ylmethyl)-amino]-phenyl}-[1,3,4]oxadiazol-2-yl)-amine]",30
23,"COc1cc(CNc2cc(N3CCN(C)CC3)ccc2-c2nnc(Nc3ccc4c(c3)OCCO4)o2)cc(OC)c1 [Compound 235, (2,3-Dihydro-benzo[1,4]dioxin-6-yl)-{5-[2-(3,5-dimethoxy-benzylamino)-4-(4-methyl-piperazin-1-yl)-phenyl]-[1,3,4]oxadiazol-2-yl}-amine]",24
